Test results published in US11254661B2, “Quinoline derivatives for treating infections with helminths” (Bayer Animal Health GMBH, priority 2017, dated 2022).

Legend:
C. elegans Slo-1a = C. elegans Slo-1a (Caenorhabditis elegans, UniProt Q95V25)
Experimental: In Vitro Assay 1: C. elegans Slo-1a—Action at a Recombinant C. elegans Cell Line
Cells were cultured at 37° C. and 5% CO2 in MEMalpha with Gutamax I (Invitrogen, Nr.: 32571), supplemented with 10% (v/v) heat inactivated fetal bovine serum (Invitrogen, Nr.: 10500), G418 (1 mg/ml, Invitrogen, Nr.: 10131). Cells were detached using Accutase (Sigma, Nr.: A6964).
Membrane Potential Measurements
Laboratory compound testing was performed on 384-well microtiter plates (MTPs, Greiner, Nr.: 781092). 8000 cells/well were plated onto 384-well MTPs and cultured for 20 to 24 hours at 37° C. and 5% CO2. After removal of the cell culture medium, the cells were washed once with tyrode (150 mM NaCl, 0.3 mM KCl, 2 mM CaCl2, 1 mM MgCl2, 0.8 mM NaH2PO4, 5 mM Glucose, 28 mM Hepes, pH 7.4) and then loaded with the voltage sensitive dye of the Membrane Potential Assay Kit diluted in tyrode for 1 h at room temperature.
After starting the measurement of fluorescence using a FLIPR Tetra(Molecular Devices, Exc. 510-545 nm, Emm. 565-625 nm), test compounds were added followed by the addition of KCl tyrode (final assay concentration: 70 mM KCl, 2 mM CaCl2, 1 mM MgCl2, 0.8 mM NaH2PO4, 5 mM Glucose, 28 mM Hepes, pH 7.4, including the voltage sensitive dye). The measurement was completed after 7 minutes.

[1] = test system: Dirofilaria immitis microfilariae; assay: In Vitro Assay 2: Dirofilaria immitis microfilariae (DIROIM L1) motility; details: 72 h

Sequence of C. elegans Slo-1a (Q95V25 whole entry): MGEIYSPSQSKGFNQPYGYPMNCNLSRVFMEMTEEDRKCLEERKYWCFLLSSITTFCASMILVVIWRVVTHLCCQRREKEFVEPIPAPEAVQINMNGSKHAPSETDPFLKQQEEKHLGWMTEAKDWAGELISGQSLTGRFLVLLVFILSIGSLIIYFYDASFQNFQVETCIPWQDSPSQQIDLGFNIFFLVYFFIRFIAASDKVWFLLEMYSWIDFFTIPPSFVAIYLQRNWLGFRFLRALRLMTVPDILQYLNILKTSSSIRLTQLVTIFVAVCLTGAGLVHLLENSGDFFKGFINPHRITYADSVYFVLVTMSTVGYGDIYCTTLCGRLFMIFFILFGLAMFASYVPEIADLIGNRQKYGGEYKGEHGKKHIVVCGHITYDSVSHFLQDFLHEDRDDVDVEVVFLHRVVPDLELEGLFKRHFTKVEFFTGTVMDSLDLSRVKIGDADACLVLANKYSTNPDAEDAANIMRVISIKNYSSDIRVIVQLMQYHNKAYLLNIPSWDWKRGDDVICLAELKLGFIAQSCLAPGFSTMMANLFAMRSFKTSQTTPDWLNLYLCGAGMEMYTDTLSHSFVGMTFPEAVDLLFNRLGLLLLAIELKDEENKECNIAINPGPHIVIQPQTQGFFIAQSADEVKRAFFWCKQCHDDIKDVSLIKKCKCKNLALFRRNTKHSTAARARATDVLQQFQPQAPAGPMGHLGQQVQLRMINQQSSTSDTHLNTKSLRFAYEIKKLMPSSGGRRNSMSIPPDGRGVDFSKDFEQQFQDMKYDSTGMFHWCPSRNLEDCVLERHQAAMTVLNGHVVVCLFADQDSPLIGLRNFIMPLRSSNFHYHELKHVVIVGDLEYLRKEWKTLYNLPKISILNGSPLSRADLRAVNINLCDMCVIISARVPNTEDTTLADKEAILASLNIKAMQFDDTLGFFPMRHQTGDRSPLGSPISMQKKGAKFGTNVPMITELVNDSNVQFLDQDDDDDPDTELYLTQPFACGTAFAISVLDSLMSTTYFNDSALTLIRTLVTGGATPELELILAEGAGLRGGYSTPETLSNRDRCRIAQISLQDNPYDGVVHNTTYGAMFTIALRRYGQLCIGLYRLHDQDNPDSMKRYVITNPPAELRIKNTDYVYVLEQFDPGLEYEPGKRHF

Row | SMILES | EC50 (C. elegans Slo-1a) | EC50 [1]
1 | CN(C)c1c(C(=O)N[C@H]2CCOc3ccccc32)cnc2c(C3=CCCCC3)cccc12 [Example 11, (S)—N-(Chroman-4-yl)-8-(cyclohex-1-en-1-yl)-4-(dimethylamino)quinoline-3-carboxamide] | 3.16 to 31.6 nM | < 1 µg/mL
2 | CC(C)c1c(C(=O)N[C@H]2CCOc3ccccc32)cnc2c(N3C[C@H](C)C[C@H](C)C3)cccc12 [Example 36, N-[(4S)-3,4-dihydro-2H-chromen-4-yl]-8-[(3R,5S)-3,5-dimethylpiperidin-1-yl]-4-(propan-2-yl)quinoline-3-carboxamide] | 3.16 to 31.6 nM | < 0.1 µg/mL
3 | CN(C)c1c(C(=O)N[C@H]2CCOc3ccccc32)cnc2c(C3CCCCC3)cccc12 [Example 12, (S)—N-(Chroman-4-yl)-8-cyclohexyl-4-(dimethylamino)quinoline-3-carboxamide] | 3.16 to 31.6 nM | < 0.1 µg/mL
4 | CN(C)c1c(C(=O)N[C@H]2CCc3ccccc32)cnc2c(N3CCOCC3)c(F)ccc12 [Example 47, N-[(1S)-2,3-dihydro-1H-inden-1-yl]-4-(dimethylamino)-7-fluoro-8-(morpholin-4-yl)quinoline-3-carboxamide] | 316 to 5010 nM | < 10 µg/mL
5 | C[C@H]1COCCN1c1cccc2c(N3CCOCC3)c(C(=O)N[C@H]3CCOc4ccccc43)cnc12 [Example 23, N-[(4S)-3,4-Dihydro-2H-chromen-4-yl]-8-[(3S)-3-methylmorpholin-4-yl]-4-(morpholin-4-yl)quinoline-3-carboxamide] | 316 to 5010 nM | < 10 µg/mL
6 | CC(C)(C)OC(=O)Nc1cccc2c(N3CCOCC3)c(C(=O)N[C@H]3CCOc4ccccc43)cnc12 [Example 26, tert-butyl {3-[(4S)-3,4-dihydro-2H-chromen-4-ylcarbamoyl]-4-(morpholin-4-yl)quinolin-8-yl}carbamate] | 3.16 to 31.6 nM | < 0.1 µg/mL
7 | CC(=O)Nc1cccc2c(N3CCOCC3)c(C(=O)N[C@H]3CCOc4ccccc43)cnc12 [Example 28, 8-(acetylamino)-N-[(4S)-3,4-dihydro-2H-chromen-4-yl]-4-(morpholin-4-yl)quinoline-3-carboxamide] | 316 to 5010 nM | < 10 µg/mL
8 | CC1CC(C)CN(c2c(F)ccc3c(N(C)C)c(C(=O)N[C@H]4CCc5ccccc54)cnc23)C1 (stereo partly drawn) [Example 41, N-[(1S)-2,3-dihydro-1H-inden-1-yl]-4-(dimethylamino)-8-(3,5-dimethylpiperidin-1-yl)-7-fluoroquinoline-3-carboxamide] | 3.16 to 31.6 nM | < 1 µg/mL
9 | C=C(C)c1cccc2c(N(C)C)c(C(=O)N[C@H]3CCOc4ccccc43)cnc12 [Example 9, (S)—N-(Chroman-4-yl)-4-(dimethylamino)-8-(prop-1-en-2-yl)quinoline-3-carboxamide] | 31.6 to 316 nM | < 1 µg/mL
10 | CN(C)c1c(C(=O)N[C@H]2CCc3ccccc32)cnc2c(N3CCCCC3)c(F)ccc12 [Example 44, N-[(1S)-2,3-dihydro-1H-inden-1-yl]-4-(dimethylamino)-7-fluoro-8-(piperidin-1-yl)quinoline-3-carboxamide] | 3.16 to 31.6 nM | < 1 µg/mL
11 | CN(C)c1c(C(=O)N[C@H]2CCOc3ccccc32)cnc2c(C3CCC(C)(C)CC3)cccc12 [Example 19, (S)—N-(Chroman-4-yl)-4-(dimethylamino)-8-(4,4-dimethylcyclohexyl)quinoline-3-carboxamide] | 31.6 to 316 nM | < 1 µg/mL
12 | COCC#Cc1cccc2c(N(C)C)c(C(=O)N[C@H]3CCOc4ccccc43)cnc12 [Example 2, (S)—N-(Chroman-4-yl)-4-(dimethylamino)-8-(3-methoxyprop-1-yn-1-yl)quinoline-3-carboxamide] | 316 to 5010 nM | < 10 µg/mL
13 | CC(C)CCc1cccc2c(N(C)C)c(C(=O)N[C@H]3CCOc4ccccc43)cnc12 [Example 3, (S)—N-(Chroman-4-yl)-4-(dimethylamino)-8-isopentylquinoline-3-carboxamide] | 3.16 to 31.6 nM | < 1 µg/mL
14 | CN(C)c1c(C(=O)N[C@H]2CCOc3ccccc32)cnc2c(C3=CCNCC3)cccc12 [Example 21, (S)—N-(Chroman-4-yl)-4-(dimethylamino)-8-(1,2,3,6-tetrahydropyridin-4-yl)quinoline-3-carboxamide] | 316 to 5010 nM | < 10 µg/mL
15 | CN(C)c1c(C(=O)N[C@H]2CCOc3ccccc32)cnc2c(C3=CCCCCC3)cccc12 [Example 14, (S)—N-(Chroman-4-yl)-8-(cyclohept-1-en-1-yl)-4-(dimethylamino)quinoline-3-carboxamide] | 3.16 to 31.6 nM | < 0.1 µg/mL
16 | C[C@@H]1CN(c2cccc3c(N4CCOCC4)c(C(=O)N[C@H]4CCOc5ccccc54)cnc23)C[C@H](C)O1 [Example 31, N-[(4S)-3,4-dihydro-2H-chromen-4-yl]-8-[(2R,6S)-2,6-dimethylmorpholin-4-yl]-4-(morpholin-4-yl)quinoline-3-carboxamide] | 31.6 to 316 nM | < 10 µg/mL
17 | CC(C)C#Cc1cccc2c(N(C)C)c(C(=O)N[C@H]3CCOc4ccccc43)cnc12 [Example 1, (S)—N-(Chroman-4-yl)-4-(dimethylamino)-8-(3-methylbut-1-yn-1-yl)quinoline-3-carboxamide] | 31.6 to 316 nM | < 10 µg/mL
18 | CN(C)c1c(C(=O)N[C@H]2CCOc3ccccc32)cnc2c(N3CCCCC3)cccc12 [Example 30, N-[(4S)-3,4-dihydro-2H-chromen-4-yl]-4-(dimethylamino)-8-(piperidin-1-yl)quinoline-3-carboxamide] | 31.6 to 316 nM | < 1 µg/mL
19 | CN(C)c1c(C(=O)N[C@H]2CCc3ccccc32)cnc2c(N3CCC(F)(F)CC3)c(F)ccc12 [Example 39, 8-(4,4-difluoropiperidin-1-yl)-N-[(1S)-2,3-dihydro-1H-inden-1-yl]-4-(dimethylamino)-7-fluoroquinoline-3-carboxamide] | 3.16 to 31.6 nM | < 1 µg/mL
20 | CN(C)c1c(C(=O)N[C@H]2CCOc3ccccc32)cnc2c(C3CCCC3)cccc12 [Example 8, (S)—N-(Chroman-4-yl)-8-cyclopentyl-4-(dimethylamino)quinoline-3-carboxamide] | < 3.16 nM | < 0.1 µg/mL
21 | CN(C)c1c(C(=O)N[C@H]2CCc3ccccc32)cnc2c(N3CCCC3)c(F)ccc12 [Example 42, N-[(1S)-2,3-dihydro-1H-inden-1-yl]-4-(dimethylamino)-7-fluoro-8-(pyrrolidin-1-yl)quinoline-3-carboxamide] | 31.6 to 316 nM | < 10 µg/mL
22 | CN(C)c1c(C(=O)N[C@H]2CCOc3ccccc32)cnc2c(C3=CCCC3)cccc12 [Example 7, (S)—N-(Chroman-4-yl)-8-(cyclopent-1-en-1-yl)-4-(dimethylamino)quinoline-3-carboxamide] | 3.16 to 31.6 nM | < 1 µg/mL
23 | CN(C)c1c(C(=O)N[C@H]2CCOc3ccccc32)cnc2c(C3CCC(C(F)(F)F)CC3)cccc12 (stereo partly drawn) [Example 17, N—((S)-Chroman-4-yl)-4-(dimethylamino)-8-(4-(trifluoromethyl)cyclohexyl)quinoline-3-carboxamide] | 3.16 to 31.6 nM | < 0.1 µg/mL
24 | CN(C)c1c(C(=O)N[C@H]2CCOc3ccccc32)cnc2c(C3=CCC(C(F)(F)F)CC3)cccc12 (stereo partly drawn) [Example 16, N—((S)-Chroman-4-yl)-4-(dimethylamino)-8-(4-(trifluoromethyl)cyclohex-1-en-1-yl)quinoline-3-carboxamide] | 3.16 to 31.6 nM | < 1 µg/mL
